According to patent US10233177B2, “TRPV1 vanilloid receptor antagonists with a bicyclic portion” (Serentrix LLC, priority 2010, dated 2019):
Like-named read-outs stand apart in the source and are kept apart here.

Target: TRPV1 (Rattus norvegicus (Rat), UniProt O35433)
Test: Ca2+ fluorescence measurements in cultured rat dorsal root ganglia neurons (capsaicin-induced calcium uptake)
Format: cell-based
Conditions: rat DRG neurons; for inhibition at 0.3 µM: DRG neuron
[1] = Table 1, formula IA-C, 300 nM against calcium uptake induced by 30 nM capsaicin, read-out: % inhibition at 300 nM
[2] = capsaicin-induced calcium uptake, read-out: inhibition of the calcium uptake
[3] = Table 1, against capsaicin-evoked [Ca2+]i mobilization, read-out: IC50
[4] = Table 3, formula IF-H, 300 nM against calcium uptake induced by 30 nM capsaicin, read-out: % inhibition at 300 nM
[5] = 300 nM, read-out: abolition of capsaicin response at 300 nM

Sequence of TRPV1 (O35433 whole entry): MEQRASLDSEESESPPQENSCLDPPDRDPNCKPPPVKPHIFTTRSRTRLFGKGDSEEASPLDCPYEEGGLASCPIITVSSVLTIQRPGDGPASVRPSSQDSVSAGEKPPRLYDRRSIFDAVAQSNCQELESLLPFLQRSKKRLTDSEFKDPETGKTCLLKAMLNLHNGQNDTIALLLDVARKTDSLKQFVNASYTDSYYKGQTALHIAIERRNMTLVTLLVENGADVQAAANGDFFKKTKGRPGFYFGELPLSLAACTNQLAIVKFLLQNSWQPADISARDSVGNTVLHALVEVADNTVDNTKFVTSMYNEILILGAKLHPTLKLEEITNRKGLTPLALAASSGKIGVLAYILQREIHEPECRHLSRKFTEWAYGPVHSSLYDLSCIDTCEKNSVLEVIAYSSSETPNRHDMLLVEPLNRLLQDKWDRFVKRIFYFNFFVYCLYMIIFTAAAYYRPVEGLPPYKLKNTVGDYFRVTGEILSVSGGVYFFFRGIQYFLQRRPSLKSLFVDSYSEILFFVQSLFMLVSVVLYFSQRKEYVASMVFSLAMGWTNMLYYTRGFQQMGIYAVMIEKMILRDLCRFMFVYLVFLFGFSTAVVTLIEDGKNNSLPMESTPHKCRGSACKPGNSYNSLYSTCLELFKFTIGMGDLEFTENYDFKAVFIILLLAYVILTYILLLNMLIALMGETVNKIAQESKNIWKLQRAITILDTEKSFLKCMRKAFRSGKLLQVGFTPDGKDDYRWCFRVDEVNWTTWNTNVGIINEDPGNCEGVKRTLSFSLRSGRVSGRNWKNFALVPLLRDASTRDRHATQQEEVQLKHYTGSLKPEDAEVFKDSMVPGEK

SMILES	inhibition at 0.3 µM [1] [%]	other results
CN(C)c1cc(C(F)(F)F)ccc1CNC(=O)Nc1cccc2oc(=O)[nH]c12 [Example 29, 1-(2-(dimethylamino)-4-(trifluoromethyl)benzyl)-3-(2,3-dihydro-2-oxobenzo[d]oxazol-4-yl)urea]	8	–
O=C(Cc1ccc(C(F)(F)F)cc1)Nc1cccc2[nH]c(=O)[nH]c12 [Example 55, 2-(4-(trifluoromethyl)phenyl)-N-(2,3-dihydro-2-oxo-1H-benzo[d]imidazol-4-yl)acetamide]	–	inhibition at 0.3 µM (Table 2, formula ID-E, 300 nM against calcium uptake induced by 30 nM capsaicin, read-out: % inhibition at 300 nM): 10%
O=C(NCc1ccc(C(F)(F)F)nc1N1CCCC1)Nc1cccc2[nH]c(=O)[nH]c12 [Example 39, 1-(2-oxo-1,3-dihydrobenzimidazol-4-yl)-3-[[2-pyrrolidin-1-yl-6-(trifluoromethyl)-3-pyridyl]methyl]urea]	–	abolition of capsaicin response at 300 nM (300 nM): around 100%; % inhibition at 300 nM (Table 1, formula IA-C, 300 nM against calcium uptake induced by 30 nM capsaicin): 98%; IC50 [3]: 9.5 nM; inhibition of the calcium uptake (capsaicin-induced calcium uptake): more than 80%
O=C(NCc1ccc(C(F)(F)F)cc1N1CCOCC1)c1cccc2oc(=O)[nH]c12 [Example 61, N-(4-(trifluoromethyl)-2-morpholinobenzyl)-2,3-dihydro-2-oxobenzo[d]oxazole-4-carboxamide]	–	inhibition at 0.3 µM [4]: 15%
O=C1COc2cccc(NC(=O)NCc3ccc(C(F)(F)F)cc3N3CCCCC3)c2N1 [Example 44, 1-(4-(trifluoromethyl)-2-(piperidin-1-yl)benzyl)-3-(3,4-dihydro-3-oxo-2H-benzo[b][1,4]oxazin-5-yl)urea]	47	–
O=C1COc2cccc(C(=O)NCc3ccc(C(F)(F)F)cc3N3CCCCC3)c2N1 [Example 63, N-(4-(trifluoromethyl)-2-(piperidin-1-yl)benzyl)-3,4-dihydro-3-oxo-2H-benzo[b][1,4]oxazine-5-carboxamide]	–	inhibition at 0.3 µM [4]: 79%
O=C(NCc1ccc(C(F)(F)F)cc1F)Nc1cccc2oc(=O)[nH]c12 [Example 25, 1-(2-fluoro-4-(trifluoromethyl)benzyl)-3-(2,3-dihydro-2-oxobenzo[d]oxazol-4-yl)urea]	40	–
O=C(NCc1ccc(C(F)(F)F)cc1N1CCCC1)Nc1cccc2[nH]c(=O)oc12 [Example 35, 1-(4-(trifluoromethyl)-2-(pyrrolidin-1-yl)benzyl)-3-(2,3-dihydro-2-oxobenzo[d]oxazol-7-yl)urea]	90	inhibition at 0.3 µM [2]: > 80%
O=C(NCc1ccc(C(F)(F)F)cc1N1CCCCC1)c1cccc2oc(=O)[nH]c12 [Example 60, N-(4-(trifluoromethyl)-2-(piperidin-1-yl)benzyl)-2,3-dihydro-2-oxobenzo[d]oxazole-4-carboxamide]	–	inhibition at 0.3 µM [4]: 8%
O=C1COc2c(cccc2NC(=O)NCc2ccc(C(F)(F)F)o2)N1 [Example 76, 1-(3-oxo-4H-1,4-benzoxazin-8-yl)-3-[[5-(trifluoromethyl)-2-furyl]methyl]urea]	40	–
O=C1COc2c(cccc2NC(=O)NCc2ccc(C(F)(F)F)nc2N2CCCC2)N1 [Example 87, 1-(3-oxo-4H-1,4-benzoxazin-8-yl)-3-[[2-pyrrolidin-1-yl-6-(trifluoromethyl)-3-pyridyl]methyl]urea]	100	inhibition at 0.3 µM [5]: ~100%; inhibition at 0.3 µM [2]: > 80%; IC50 [3]: 9 nM
O=C(NCc1ccc(C(F)(F)F)cc1N1CCOCC1)Nc1cccc2oc(=O)[nH]c12 [Example 32, 1-(4-(trifluoromethyl)-2-(4-morpholino)benzyl)-3-(2,3-dihydro-2-oxobenzo[d]oxazol-4-yl)urea]	93	inhibition at 0.3 µM [2]: > 80%
O=C(NCc1ccc(C(F)(F)F)cc1Cl)Nc1cccc2oc(=O)[nH]c12 [Example 26, 1-(2-chloro-4-(trifluoromethyl)benzyl)-3-(2,3-dihydro-2-oxobenzo[d]oxazol-4-yl)urea]	55	–
O=C1COc2c(cccc2NC(=O)NCc2ccc(Cl)nc2)N1 [Example 54, 1-((6-chloropyridin-3-yl)methyl)-3-(3,4-dihydro-3-oxo-2H-benzo[b][1,4]oxazin-8-yl)urea]	55	–
O=C1COc2cccc(NC(=O)NCc3ccc(C(F)(F)F)cc3N3CCCC3)c2N1 [Example 43, 1-(4-(trifluoromethyl)-2-(pyrrolidin-1-yl)benzyl)-3-(3,4-dihydro-3-oxo-2H-benzo[b][1,4]oxazin-5-yl)urea]	23	–
CN(C)CCOc1nc(C(F)(F)F)ccc1CNC(=O)Nc1cccc2c1OCC(=O)N2 [Example 91, 1-[[2-(2-dimethylaminoethoxy)-6-(trifluoromethyl)-3-pyridyl]methyl]-3-(3-oxo-4H-1,4-benzoxazin-8-yl)urea]	40	–
O=C1COc2c(cccc2NC(=O)NCc2ccc(C(F)(F)F)nc2N2CCCCC2)N1 [Example 78, 1-(3-oxo-4H-1,4-benzoxazin-8-yl)-3-[[2-(1-piperidyl)-6-(trifluoromethyl)-3-pyridyl]methyl]urea]	100	inhibition at 0.3 µM [5]: ~100%; inhibition at 0.3 µM [2]: > 80%; IC50 (read-out: IC50 against capsaicin-evoked [Ca2+]i mobilization): 0.61 nM
O=C1COc2c(cccc2NC(=O)NCc2ccc(Cl)cc2N2CCCCC2)N1 [Example 52, 1-(4-chloro-2-(piperidin-1-yl)benzyl)-3-(3,4-dihydro-3-oxo-2H-benzo[b][1,4]oxazin-8-yl)urea]	98	inhibition at 0.3 µM [5]: ~100%
O=C(NCc1ccc(C(F)(F)F)cc1N1CCCCC1)Nc1cccc2[nH]c(=O)oc12 [Example 36, 1-(4-(trifluoromethyl)-2-(piperidin-1-yl)benzyl)-3-(2,3-dihydro-2-oxobenzo[d]oxazol-7-yl)urea]	100	inhibition at 0.3 µM [5]: ~100%; inhibition at 0.3 µM [2]: > 80%
O=C(NCc1ccc(C(F)(F)F)cc1)c1cccc2oc(=O)[nH]c12 [Example 59, N-(4-(trifluoromethyl)benzyl)-2,3-dihydro-2-oxobenzo[d]oxazole-4-carboxamide]	–	inhibition at 0.3 µM [4]: 5%
O=C(NCc1ccc(C(F)(F)F)cc1N1CCOCC1)Nc1cccc2[nH]c(=O)[nH]c12 [Example 7, 1-(4-(trifluoromethyl)-2-(4-morpholino)benzyl)-3-(2,3-dihydro-2-oxo-1H-benzo[d]imidazol-4-yl)urea]	33	–
Cc1ccc(CNC(=O)Nc2cccc3c2OCC(=O)N3)c(OC(C)C)n1 [Example 85, 1-[(2-isopropoxy-6-methyl-3-pyridyl)methyl]-3-(3-oxo-4H-1,4-benzoxazin-8-yl)urea]	79	–

More lines, main results first:

inhibition at 0.3 µM [1] [%]	SMILES	other results
80	CN(C)c1nc(C(F)(F)F)ccc1CNC(=O)Nc1cccc2[nH]c(=O)[nH]c12 [Example 69, 1-[[2-dimethylamino-6-(trifluoromethyl)-3-pyridyl]methyl]-3-(2-oxo-1,3-dihydrobenzimidazol-4-yl)urea]	inhibition at 0.3 µM [2]: > 80%; IC50 [3]: 92 nM
44	Cc1ccc(CNC(=O)Nc2cccc3[nH]c(=O)[nH]c23)cc1 [Example 17, 1-(4-methylbenzyl)-3-(2,3-dihydro-2-oxo-1H-benzo[d]imidazol-4-yl)urea]	–
93	O=C(NCc1ccc(C(F)(F)F)cc1Cl)Nc1cccc2[nH]c(=O)[nH]c12 [Example 3, 1-(2-chloro-4-(trifluoromethyl)benzyl)-3-(2,3-dihydro-2-oxo-1H-benzo[d]imidazol-4-yl)urea]	inhibition at 0.3 µM [2]: > 80%
54	Cc1ccc(CNC(=O)Nc2cccc3c2OCC(=O)N3)cc1 [Example 79, 1-(3-oxo-4H-1,4-benzoxazin-8-yl)-3-(p-tolylmethyl)urea]	–
2	O=C(NCc1ccc(C(F)(F)F)cc1-n1cncn1)Nc1cccc2[nH]c(=O)[nH]c12 [Example 8, 1-(4-(trifluoromethyl)-2-(1H-1,2,4-triazol-1-yl)benzyl)-3-(2,3-dihydro-2-oxo-1H-benzo[d]imidazol-4-yl)urea]	–
18	O=C(NCc1ccc(F)cc1)Nc1cccc2[nH]c(=O)[nH]c12 [Example 9, 1-(4-fluorobenzyl)-3-(2,3-dihydro-2-oxo-1H-benzo[d]imidazol-4-yl)urea]	–
40	CN(C)CCOc1nc(C(F)(F)F)ccc1CNC(=O)Nc1cccc2[nH]c(=O)[nH]c12 [Example 72, 1-[[2-(2-dimethylaminoethoxy)-6-(trifluoromethyl)-3-pyridyl]methyl]-3-(2-oxo-1,3-dihydrobenzimidazol-4-yl)urea]	IC50 [3]: 6 nM
40	O=C(NCc1ccc(C(F)(F)F)cc1)Nc1cccc2oc(=O)[nH]c12 [Example 24, 1-(4-(trifluoromethyl)benzyl)-3-(2,3-dihydro-2-oxobenzo[d]oxazol-4-yl)urea]	–
71	O=C(NCc1ccc(C(F)(F)F)nc1)Nc1cccc2[nH]c(=O)[nH]c12 [Example 66, 1-(2-oxo-1,3-dihydrobenzimidazol-4-yl)-3-[[6-(trifluoromethyl)-3-pyridyl]methyl]urea]	–
19	O=C(NCc1ccc(C(F)(F)F)cc1)Nc1cccc2[nH]c(=O)oc12 [Example 34, 1-(4-(trifluoromethyl)benzyl)-3-(2,3-dihydro-2-oxobenzo[d]oxazol-7-yl)urea]	–
82	CN(C)c1cc(Cl)ccc1CNC(=O)Nc1cccc2[nH]c(=O)[nH]c12 [Example 11, 1-(4-chloro-2-(dimethylamino)benzyl)-3-(2,3-dihydro-2-oxo-1H-benzo[d]imidazol-4-yl)urea]	inhibition at 0.3 µM [2]: > 80%; IC50 [3]: 12 nM
100	CC(C)(C)c1ccc(CNC(=O)Nc2cccc3[nH]c(=O)[nH]c23)c(Cl)c1 [Example 74, 1-[(4-tert-butyl-2-chloro-phenyl)methyl]-3-(2-oxo-1,3-dihydrobenzimidazol-4-yl)urea]	inhibition at 0.3 µM [5]: ~100%; inhibition at 0.3 µM [2]: > 80%
